Measured values reported in ChEMBL document CHEMBL4421717, “Antagonists and agonists of bitter taste receptors and uses thereof” (2012).

Legend:
[1] = target: T1, Taste receptor type 2 member 46 (Homo sapiens, UniProt P59540); test: Antagonist activity at recombinant human N-terminal rat ST3 receptor-fused TAS2R46 expressed in HEK293T cells co-expressing Galpha16gust44 assessed as inhibition of 3 uM strychnine-induced intracellular calcium level by FLIPR assay; type: functional, cell-based
T1 sequence (P59540 whole entry): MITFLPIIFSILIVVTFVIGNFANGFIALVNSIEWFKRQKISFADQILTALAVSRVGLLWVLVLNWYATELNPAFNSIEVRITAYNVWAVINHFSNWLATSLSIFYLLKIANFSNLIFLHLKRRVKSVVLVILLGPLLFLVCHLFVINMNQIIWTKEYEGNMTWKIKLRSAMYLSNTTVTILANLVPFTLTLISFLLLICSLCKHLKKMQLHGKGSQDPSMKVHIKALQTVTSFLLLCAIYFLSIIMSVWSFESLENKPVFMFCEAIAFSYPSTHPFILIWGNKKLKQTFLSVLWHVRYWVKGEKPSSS

[2] = target: T1, Taste receptor type 2 member 46; test: Activity at recombinant human N-terminal rat ST3 receptor-fused TAS2R46 expressed in HEK293T cells co-expressing Galpha16gust44 assessed as activation of 3 uM strychnine-induced intracellular calcium level by FLIPR assay; type: functional, cell-based

IC50 [1]	EC50 [2]	SMILES
97.8 µM	–	C/C1=C\CC(=O)/C(C)=C/[C@H]2OC(=O)[C@@H](C)C2CC1 (some centres undefined)
–	8.6 µM	C=C1C(=O)O[C@@H]2/C=C(\C)CC/C=C(\C)CCC12 (some centres undefined)
–	8.3 µM	C/C1=C\[C@H]2OC(=O)[C@@H](C)C2CC/C(C)=C/CC1 (some centres undefined)
–	1.1 µM	CC(=O)O[C@H]1C/C=C(\C)CCC2[C@H](C)C(=O)O[C@@H]2/C=C/1C (some centres undefined)
